Experimental data taken from patent US5556842A, “Method for viable preservation of lung grafts” (Senju Pharmaceutical Co., Ltd., priority 1994, dated 1996).

Experiments:
[1] = system: lung graft (cardiac arrest donor lungs); test: Left-lung transplantation model with cardiac arrest donor lungs; pulmonary function parameters over 6 hours after transplantation; assay type: in vivo, adult mongrel dogs
Source text: The lung preserving effect of the lung graft preservative composition of this invention in the transplantation of cardiac arrest donor lungs was experimentally evaluated.
[Test substance] L-Ascorbyl DL-α-tocopheryl phosphate potassium (abbreviation: EPC-K) dissolved in modified Euro-Collins solution ^1)
[Method] The left-lung transplantation model was constructed in adult mongrel dogs and used. The donor was brought to cardiac standstill by intravenous administration of potassium chloride solution and allowed to stand at room temperature for 2 hours. Then, while Group I (n=3) was perfused with Euro-Collins solution, an organ preservative which is commonly used in lung transplantation, Group II (n=3) was perfused with the lung graft preservative composition of this invention, followed by preservation at 4° C. for 12 hours. After the lung was transplanted into the recipient, the right pulmonary artery and right main branchus were ligated and the pulmonary function parameters were determined over a period of 6 hours.

Acute toxicity LD50 = test: Acute toxicity LD50; set-up: species or system rats; conditions: rat, in vivo

Cc1c(C)c2c(c(C)c1OP(=O)(O)OC1=C(O)[C@@H]([C@@H](O)CO)OC1=O)CCC(C)(CCCC(C)CCCC(C)CCCC(C)C)O2 (mixture of isomers) [EPC-K, L-Ascorbyl DL-α-tocopheryl phosphate potassium]
arterial blood carbon dioxide partial pressure (PaCO2) ([1]; 5 hours after lung transplantation, preserved at 4° C. for 12 hours, n=3): 32.4±20.9 mmHg | arterial blood oxygen partial pressure (PaO2) ([1]; 6 hours after lung transplantation, donor lung 2 h at room temperature after cardiac standstill, preserved at 4° C. for 12 hours, n=3): 460±94 mmHg | extravascular lung water (EVLW), indicator of pulmonary edema ([1]; FIG. 3, vs. Euro-Collins solution (control)): effective in inhibiting edema | pulmonary vascular resistance (PVR) ([1]; FIG. 5, vs. Euro-Collins solution (control)): inhibits the increase of pulmonary vascular resistance | pulmonary arterial pressure (PAP) ([1]; FIG. 6, vs. Euro-Collins solution (control)): inhibits pulmonary edema without increasing pulmonary vascular resistance | cardiac output (CO) ([1]; FIG. 7, vs. Euro-Collins solution (control)): exerts no adverse influence on the heart | pulmonary blood shunt fraction ([1]; after 1 and 2 hours, FIG. 4, vs. Euro-Collins solution (control)): pulmonary blood shunt inhibitory effect which is significant after 1 and 2 hours | arterial blood carbon dioxide partial pressure (PaCO2), effect in words ([1]; after 5 hours, vs. Group I (Euro-Collins solution), FIG. 2): remarkably effective | various parameters of pulmonary function ([1]; after blood reperfusion): very favorable effects on various parameters of pulmonary function | pulmonary blood shunt fraction, other time-points ([1]; time-points other than 1 and 2 hours, FIG. 4): This inhibitory effect was also noted at other time-points | arterial blood oxygen partial pressure (PaO2), other time-points ([1]; time-points other than 6 hours, vs. Group I (Euro-Collins solution), FIG. 1): Results in Favor of Group II were obtained at other time-points, too | LD50 (Acute toxicity LD50; iv, i.v. (rats)): ≥ 100 mg/kg | LD50 (Acute toxicity LD50; po, p.o. (rats)): ≥ 5000 mg/kg
